Values belong to the compound of their own block, whether it stands above or below them.
Tested on: 276233-004-R-J1-PDC complex spheroid viability
Assay: Anticancer human tumor 276233-004-R-J1-PDC patient-derived colon adenocarcinoma cell line growth inhibition [GQUAD]
Settings: for IC50: curve of first compound; for viability, T/C: stronger effect = lower value
Procedure, shortened: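 Viability of tumor cells grown as complex spheroids with endothelial and stromal cells, exposed to drug combinations. Top concentration at or near clinical Cmax (else 10 microM), diluted in half-log increments.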

[1] = second compound 0.0316 µM, first compound 0.0316 µM
[2] = second compound 0.0316 µM, first compound 0.1 µM
[3] = second compound 0.0316 µM, first compound 0.316 µM
[4] = second compound 0.0316 µM, first compound 1 µM
[5] = second compound 0.0316 µM, first compound 3.16 µM
[6] = second compound 0.0316 µM, first compound 10 µM
[7] = second compound 0.1 µM, first compound 0.0316 µM
[8] = second compound 0.1 µM, first compound 0.1 µM
[9] = second compound 0.1 µM, first compound 0.316 µM
[10] = second compound 0.1 µM, first compound 1 µM
[11] = second compound 0.1 µM, first compound 3.16 µM
[12] = second compound 0.1 µM, first compound 10 µM
[13] = second compound 0.316 µM, first compound 0.0316 µM
[14] = second compound 0.316 µM, first compound 0.1 µM
[15] = second compound 0.316 µM, first compound 0.316 µM
[16] = second compound 0.316 µM, first compound 1 µM
[17] = second compound 0.316 µM, first compound 3.16 µM
[18] = second compound 0.316 µM, first compound 10 µM
[19] = second compound 1 µM, first compound 0.0316 µM
[20] = second compound 1 µM, first compound 0.1 µM
[21] = second compound 1 µM, first compound 0.316 µM
[22] = second compound 1 µM, first compound 1 µM
[23] = second compound 1 µM, first compound 3.16 µM
[24] = second compound 1 µM, first compound 10 µM
[25] = second compound 3.16 µM, first compound 0.0316 µM
[26] = second compound 3.16 µM, first compound 0.1 µM
[27] = second compound 3.16 µM, first compound 0.316 µM
[28] = second compound 3.16 µM, first compound 1 µM
[29] = second compound 3.16 µM, first compound 3.16 µM
[30] = second compound 3.16 µM, first compound 10 µM
[31] = second compound 10 µM, first compound 0.0316 µM
[32] = second compound 10 µM, first compound 0.1 µM
[33] = second compound 10 µM, first compound 0.316 µM
[34] = second compound 10 µM, first compound 1 µM
[35] = second compound 10 µM, first compound 3.16 µM
[36] = second compound 10 µM, first compound 10 µM
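Further: spheroids exposed to drugs for seven days.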
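Wherever viability, T/C is given: 100% = DMSO vehicle control viability.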

Compound: C#Cc1c(F)ccc2cc(O)cc(-c3ncc4c(N5CC6CCC(C5)N6)nc(OCC56CCCN5CC(F)C6)nc4c3F)c12 (stereo unspecified) + Cc1[nH]c2ccc(F)cc2c1-c1nc2c3cccnc3c3ncccc3c2[nH]1
IC50 (second compound 0.0316 µM): > 10000 nM | IC50 (second compound 0.1 µM): 2500 nM | IC50 (second compound 0.316 µM): 1130 nM | IC50 (second compound 1 µM): 208 nM | IC50 (second compound 3.16 µM): < 31.6 nM | IC50 (second compound 10 µM): < 31.6 nM | viability, T/C [1]: 89% | viability, T/C [2]: 85.2% | viability, T/C [3]: 89.2% | viability, T/C [4]: 71.7% | viability, T/C [5]: 57.2% | viability, T/C [6]: 51.2% | viability, T/C [7]: 80.2% | viability, T/C [8]: 80.3% | viability, T/C [9]: 82.5% | viability, T/C [10]: 73.8% | viability, T/C [11]: 44% | viability, T/C [12]: 34.1% | viability, T/C [13]: 68.4% | viability, T/C [14]: 67.4% | viability, T/C [15]: 57% | viability, T/C [16]: 56% | viability, T/C [17]: 33.8% | viability, T/C [18]: 27.4% | viability, T/C [19]: 70.3% | viability, T/C [20]: 48.7% | viability, T/C [21]: 48.7% | viability, T/C [22]: 39.7% | viability, T/C [23]: 40% | viability, T/C [24]: 26.2% | viability, T/C [25]: 19.1% | viability, T/C [26]: 14.9% | viability, T/C [27]: 12.7% | viability, T/C [28]: 13.6% | viability, T/C [29]: 9.51% | viability, T/C [30]: 17.4% | viability, T/C [31]: 35.7% | viability, T/C [32]: 41.8% | viability, T/C [33]: 35.7% | viability, T/C [34]: 34.2% | viability, T/C [35]: 28.1% | viability, T/C [36]: 15.6%

Compound: CC1COCCN1c1cc(C2(S(C)(=N)=O)CC2)nc(-c2ccnc3[nH]ccc23)n1 (stereo unspecified) + CN(C)c1ccc(Nc2c3ccc(NC(=O)CCN4CCCC4)cc3nc3cc(NC(=O)CCN4CCCC4)ccc23)cc1
IC50 (second compound 0.0316 µM): > 10000 nM | IC50 (second compound 0.1 µM): > 10000 nM | IC50 (second compound 0.316 µM): 4010 nM | IC50 (second compound 1 µM): 1960 nM | IC50 (second compound 3.16 µM): 3160 nM | IC50 (second compound 10 µM): < 31.6 nM | viability, T/C [1]: 97.8% | viability, T/C [2]: 91% | viability, T/C [3]: 89.8% | viability, T/C [4]: 81.3% | viability, T/C [5]: 66.7% | viability, T/C [6]: 67.4% | viability, T/C [7]: 95.1% | viability, T/C [8]: 84.5% | viability, T/C [9]: 75.2% | viability, T/C [10]: 65.5% | viability, T/C [11]: 74.6% | viability, T/C [12]: 66.9% | viability, T/C [13]: 74.5% | viability, T/C [14]: 75.7% | viability, T/C [15]: 47.8% | viability, T/C [16]: 64% | viability, T/C [17]: 59% | viability, T/C [18]: 39.8% | viability, T/C [19]: 65.8% | viability, T/C [20]: 47.6% | viability, T/C [21]: 59.5% | viability, T/C [22]: 52.9% | viability, T/C [23]: 50.1% | viability, T/C [24]: 43.9% | viability, T/C [25]: 58.4% | viability, T/C [26]: 61.5% | viability, T/C [27]: 63.1% | viability, T/C [28]: 46.4% | viability, T/C [29]: 52.7% | viability, T/C [30]: 55.6% | viability, T/C [31]: 36.8% | viability, T/C [32]: 45.5% | viability, T/C [33]: 33.7% | viability, T/C [34]: 52.5% | viability, T/C [35]: 37.2% | viability, T/C [36]: 71.4%

IC50 (second compound 0.0316 µM): > 316 nM | IC50 (second compound 0.1 µM): > 316 nM | IC50 (second compound 0.316 µM): > 316 nM | IC50 (second compound 1 µM): > 316 nM | IC50 (second compound 3.16 µM): > 316 nM | IC50 (second compound 10 µM): > 316 nM
Compound: Cn1ncnc1[C@H]1c2n[nH]c(=O)c3cc(F)cc(c23)N[C@@H]1c1ccc(F)cc1 + Cc1cnc(CNC(=O)c2c(=O)c3ccc(N4CCCN(C)CC4)nc3n3c2sc2ccccc23)cn1
viability, T/C (second compound 0.0316 µM, first compound 0.000999 µM): 94.8% | viability, T/C (second compound 0.0316 µM, first compound 0.00316 µM): 72.2% | viability, T/C (second compound 0.0316 µM, first compound 0.00999 µM): 79.9% | viability, T/C [1]: 82.6% | viability, T/C (second compound 0.0316 µM, first compound 0.0999 µM): 82.9% | viability, T/C [3]: 83.8% | viability, T/C (second compound 0.1 µM, first compound 0.000999 µM): 92.2% | viability, T/C (second compound 0.1 µM, first compound 0.00316 µM): 85.1% | viability, T/C (second compound 0.1 µM, first compound 0.00999 µM): 73% | viability, T/C [7]: 78.3% | viability, T/C (second compound 0.1 µM, first compound 0.0999 µM): 89.2% | viability, T/C [9]: 87.3% | viability, T/C (second compound 0.316 µM, first compound 0.000999 µM): 78.6% | viability, T/C (second compound 0.316 µM, first compound 0.00316 µM): 91.9% | viability, T/C (second compound 0.316 µM, first compound 0.00999 µM): 86.4% | viability, T/C [13]: 82.8% | viability, T/C (second compound 0.316 µM, first compound 0.0999 µM): 80.8% | viability, T/C [15]: 78.2% | viability, T/C (second compound 1 µM, first compound 0.000999 µM): 70.3% | viability, T/C (second compound 1 µM, first compound 0.00316 µM): 65.9% | viability, T/C (second compound 1 µM, first compound 0.00999 µM): 80.1% | viability, T/C [19]: 74.4% | viability, T/C (second compound 1 µM, first compound 0.0999 µM): 88.5% | viability, T/C [21]: 69.2% | viability, T/C (second compound 3.16 µM, first compound 0.000999 µM): 69.5% | viability, T/C (second compound 3.16 µM, first compound 0.00316 µM): 71.5% | viability, T/C (second compound 3.16 µM, first compound 0.00999 µM): 61.2% | viability, T/C [25]: 67.5% | viability, T/C (second compound 3.16 µM, first compound 0.0999 µM): 70.7% | viability, T/C [27]: 62.8% | viability, T/C (second compound 10 µM, first compound 0.000999 µM): 68.4% | viability, T/C (second compound 10 µM, first compound 0.00316 µM): 59.1% | viability, T/C (second compound 10 µM, first compound 0.00999 µM): 64.8% | viability, T/C [31]: 71.8% | viability, T/C (second compound 10 µM, first compound 0.0999 µM): 66.2% | viability, T/C [33]: 63.5%
